Data taken from patent US9770467B2, “Compositions and methods for cancer immunotherapy” (THE JOHNS HOPKINS UNIVERSITY, priority 2012, dated 2017).

How the values were obtained:
primary human PBMCs = test: IFN-α levels in primary human PBMCs by Cytometric Bead Array; format: cell-based; details: 50 μM, Effectene transfection, 24 hours; fifteen donors
Procedure: To determine the levels of IFN-α as a signature of CDN potency to activate innate immunity, 1×10^6 primary human PBMCs isolated from fifteen independent human donors were incubated in a 96 well U bottom plate for 30 min at 37° C., 5% CO2 with 50 μM of c-di-GMP (CDG), 1 μg/mL of Interferon Stimulatory DNA (ISD), or 4 μg/mL of Poly (I:C) utilizing Effectene transfection reagent (Qiagen) to transfer the molecules into the PBMC. ISD (Interferon Stimulating DNA) is TLR independent (Stetston, D. B. et. al. Immunity 24, 93-103, January 2006) and signals through cGAS, and is thus STING-dependent, while Poly (I:C) can signal through both TLR3 and RIG-I pathways, and are thus STING-independent. After 30 minutes, the cells were washed and replaced with RPMI media containing 10% FBS and incubated at 37° C., 5% CO2. After 24 hours incubation IFN-α levels were determined by Cytometric Bead Array (CBA, BD Biosciences) (FIG. 8).

STING = molecular target: T1, STING (Mus musculus, UniProt Q3TBT3); details: cited from earlier work
T1 sequence (Q3TBT3 138-378 limits assumed): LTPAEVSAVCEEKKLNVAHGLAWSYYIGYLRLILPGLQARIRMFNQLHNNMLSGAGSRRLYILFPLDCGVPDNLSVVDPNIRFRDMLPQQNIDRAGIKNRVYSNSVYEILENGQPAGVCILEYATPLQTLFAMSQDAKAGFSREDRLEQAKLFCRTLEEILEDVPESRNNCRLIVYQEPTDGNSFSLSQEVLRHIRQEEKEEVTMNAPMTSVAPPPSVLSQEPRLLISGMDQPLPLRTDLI

Nc1nc2c(ncn2[C@@H]2O[C@@H]3COP(=O)(O)O[C@H]4[C@@H](O)[C@H](n5cnc6c(=O)[nH]c(N)nc65)O[C@@H]4COP(=O)(O)O[C@H]3[C@H]2O)c(=O)[nH]1 [cyclic-di-GMP, cyclic diguanylate monophosphate]
activation of innate immunity (IFN-α levels) (primary human PBMCs): activates innate immunity
binding to STING (STING): binds directly
